Measured values as given in patent publication US4567201A, “Diphenoxypropane derivatives and compositions of antiasthmatic and antiinflammatory agents thereof” (Takeda Chemical Industries, Ltd., priority 1981, dated 1986).
Read-outs that look alike come from different tables or passages of the source.

Experiments:
[1] = system: leukotriene D4 (LTD4)-induced contraction of the guinea pig ileum; experiment: Anti-SRS-A activity: inhibition of LTD4-induced contraction of guinea pig ileum; conditions: 50% inhibition of LTD4-induced contraction (60-70% of maximum contraction), drug added 1 minute before LTD4
Source text: The present inventors studied the antagonistic action of compound (I)-A against SRS-A using a synthetic LTD4 in the following manner.
The inhibitory effect of the drug on the contractile response (60-70% of maximum contraction) of the ileum of guinea pig (body weight 300-350 g, female and male) to leukotriene D4 (LTD4) was investigated. In Tyrode solution containing atropine (10^-7 M) and mepyramine (10^-6 M), 3×10^-10 or 10^-9 M of LTD4 was repeatedly permitted to act on the guinea pig ileum and after the amplitude of contraction had become constant, a solution of the test drug was added to a final concentration of 10^-9 to 10^-4 M. After 1 minute, the same concentration of LTD4 was further added and the anti-SRS-A activity of the drug was calculated from the change in contraction amplitude by means of the following equation. [formula]
To obtain the IC50 value, the mole concentration of the drug showing a 50% inhibition of the contractile response was determined from plots on a graph.
The drug was used as dissolved in dimethyl sulfoxide. The solvent was used in an amount less than 1% which would not exert any influence on the ileum.

[2] = system: bronchoconstriction due to leukotriene D4 (LTD4); experiment: Inhibition of bronchoconstriction due to intravenous LTD4 in guinea pigs (Konzett-Rossler); format: in vivo, guinea pig (Hartley strain); conditions: for % Inhibition, Experiment 1: 2 minutes before LTD4 10 μg/kg i.v.; for % Inhibition, Experiment 1 / % Inhibition, Experiment 2: 30 seconds after LTD4; for % Inhibition, Experiment 2: 30 minutes before LTD4 10 μg/kg i.v.; for minimal effective dose: Cavia porcellus, iv, dose causing statistically significant difference vs control group, significance level <5%; for inhibitory effect upon the bronchoconstriction compared with Control compound-1 (in words): LTD4, i.v.
Protocol: Guinea pigs of Hartley strain, both male and female, with body weights about 400 g were assigned to groups of 6 individuals, and the bronchoconstriction due to LTD4 were measured according to the method of Konzett-Rossler, [Konzett, H. and Rossler, R.: Naunyn-Schmiedebergs Archiv Fur Experimentelle Pathologie und Pharmakologie 195, 71-74 (1940)]. Each guinea pig was fixed in supine position under urethane anesthesia (1.5 g/kg, intraperitoneal) and the trachea was incised and connected to an artificial respiration apparatus, Rodent Respirator Model 680 [Harvard Apparatus Company, U.S.A.] via a cannula. The branch tube of this tracheal cannula was connected to Bronchospasm Transducer Model 7020 [Ugobasil Biological Research Apparatus, Italy]. Under the conditions of 5 to 7 ml of air per stroke, 70 strokes per minute and a lung loading pressure of 10 cmH2 O, the volume of overflowing air was recorded on Rectigraph-8S (Sanei Sokki Ltd., Japan) via a transducer. After administration of gallamine triethiodide (1 mg/kg, i.v.), 10 μ g/kg of histamine.2HCl was intravenously administered to investigate the response of the animal. Then, a solution of LTD4 in physiological saline (10 μg/kg) was intravenously administered and the bronchoconstriction elicited thereby was recorded for 15 minutes. Two minutes before LTD4 loading, compound (I)-A-1 was intravenously administered in a volume of 0.1 ml per 100 g body weight. Compound (I)-A-1 and LTD4 were administered through a cannula inserted into the jugular vein.
The compound (I)-A-1 was used as dissolved in physiological saline containing sodium hydrogen carbonate, and LTD4 was taken from a stock stored in methanol (1 mg/1 ml methanol) at -70° C.
The bronchoconstriction induced by intravenous administration of 10 μg/kg of LTD4 as given 2 minutes after the administration of physiological saline was maximal at the time of 30 seconds after the administration of LTD4 and, since then, was rapidly attenuated to about 50% at the time of 2 minutes but lasted till 15 minutes. Assuming that the response at complete obstruction is 100%, the values at 30 seconds and 15 minutes were 47.4±6.9% (n=6, Mean±S.E.) and 19.4±2.8% (Mean±S.E.), respectively (S.E.: standard error).
Then the present inventors studied the antagonistic action of the compound (I)-B against SRS-A using a synthetic LTD4 in the manner described on the compound (I)-A.
In each case, the bronchoconstriction following intravenous administration of 10 μg/kg of LTD4 at 2 or 30 minutes after the administration of physiological saline reached a maximum 30 seconds after the administration of LTD4, and then decreased to about 50% at 2 minutes after the administration of LTD4. The response continued for 15 minutes after the administration of LTD4. Repeated experiments using 6 animals per group gave mean degrees of maximum bronchoconstriction (30-second values) of 52.2-67.1% and 54.7-70.1%, respectively, as compared with the state of complete obstruction (100%). In experiment 1, the test compounds (I)-B-1, (I)-B-2 and Control compound-1 were each intravenously administered at two minutes before the administration of LTD4 and inhibitory effect on the bronchoconstriction was examined. The minimum effective doses (causing statistically significant differences as compared with the control group; significance level <5%) were 0.313, 0.313 and 5 mg/kg, respectively. The corresponding inhibition percentages were 41, 52 and 56%, respectively. In experiment 2, the test compounds were intravenously administered 30 minutes before the administration of LTD4 and the effect on the above response was examined. The minimum effective doses were 5, 5, and 20 mg/kg, respectively.
The test compounds were intravenously administered 2 minutes before the
intravenous administration of 10 μg/kg of LTD4.
The test compounds were intravenously administered 30 minutes before the
Each value was calculated from the volume (in percentage) of air […]

Acute toxicity in mice = format: in vivo, mouse (Jcl:ICR strain); conditions: 500 mg/kg oral; for Autopsy findings: after 7 days; for symptoms attributable to compound after oral administration: male mice
Protocol: Five 5-week-old male mice of Jcl:ICR strain, weighing 26.0 to 30.5 g, were used. Compound (I)-A-1 was suspended in a 5% solution of gum arabic and administered orally by gastric gavage at the level of 0.2 ml per 10 grams body weight.
Five 5-week-old male mice of Jcl:ICR strain, weighing 26.0 to 30.5 g, were used. Compound (I)-B-1 or (I)-B-2 was suspended in a 5% solution of gum arabic and administered orally by gastric gavage at the level of 0.2 ml per 10 grams body weight.

[3] = system: antigen-induced bronchoconstriction; experiment: Antigen-induced bronchoconstriction in sensitized guinea pigs; format: in vivo, guinea pig (Hartley strain); conditions: for % Inhibition: 2 minutes prior to antigen (EA 1 mg/kg i.v.), one minute after antigen; for minimal effective dose: Cavia porcellus, iv, 2 minutes prior to antigen administration, read-out: minimum effective dose; for inhibitory effect on the antigen-induced bronchoconstriction compared with Control compound-1 (in words): i.v., 2 minutes prior to antigen
Protocol: According to the method of Orange and Moore [Orange, R. P. and Moore, E. G., Journal of Immunology, 116, 392-397 (1976)], Hartley-strain male guinea pigs weighing about 350 g were sensitized by intraperitoneal administration of 1 ml of an emulsion composed of 0.5 ml of physiological saline containing 1 mg of egg alubumin (EA) and 0.5 ml of Freund's complete adjuvant (Difco, USA). Three weeks after the sensitization, the serum antibody levels in the sensitized guinea pigs were determined by the 3-hour PCA reaction in guinea pigs and those guinea pigs that gave positive results in the PCA reaction with 1,000-fold diluted serum samples therefrom were used as the sensitized aminals. Using the Konzett-Rossler method as mentioned under the above paragraph (i), the bronchoconstriction due to the antigen-antibody reaction was induced by intravenous administration of 1 mg/kg of the antigen EA instead of LTD4, and recorded.
The bronchoconstriction in the control group as induced by antigen administration 2 minutes after the intravenous administration of physiological saline reached a maximum one minute after the intravenous administration of the antigen. Gradual recovery followed and the pretreatment state was almost restored in 15 minutes after the induction. Repeated experiments using 6 animals per group gave mean degrees of maximum bronchoconstriction (one-minute values) of 72.8-83.3% as compared with the state of complete obstruction (100%). The test compounds (I)-B-1, (I)-B-2 and Control compound-1 were each intravenously administered 2 minutes prior to antigen administration and the inhibitory effect on the bronchoconstriction was examined. The minimum effective doses were 5, 5 and 20 mg/kg, respectively, and the corresponding inhibition percentages were 51, 52 and 64%, respectively.
The test compounds were intravenously administered 2 minutes prior to
intravenous administration of the antigen.
Each value was calculated from the volume (in percentage) of air
overflowing from the respiratory tract at the time when the response was
maximal, i.e. one minute after administration of the antigen.

[4] = 1.25 mg/kg i.v., **P<0.01 for (I)-B-1 and (I)-B-2
[5] = 5 mg/kg i.v., P<0.001 for (I)-B-1 and Control compound-1, P<0.01 for (I)-B-2
[6] = 5 mg/kg i.v., **P<0.01 for (I)-B-1 and (I)-B-2
[7] = 20 mg/kg i.v., P<0.001 for (I)-B-1 and (I)-B-2, P<0.01 for Control compound-1
[8] = 30 minutes before LTD4, read-out: minimum effective dose, experiment 2
[9] = two minutes before LTD4, read-out: minimum effective dose, experiment 1
[10] = 5 mg/kg i.v., p<0.001 for (I)-B-1, p<0.01 for (I)-B-2

CCCc1c(OCCCOc2ccc(-c3nnn[nH]3)cc2Cl)ccc(C(C)=O)c1O [Compound (I)-A-3, 1-(4-acetyl-3-hydroxy-2-n-propylphenoxy)-3-[2-chloro-4-(tetrazol-5-yl)phenoxy]propane]
IC50 [1]: 70 nM

CCCc1c(OCCCOc2ccc(C(=O)O)cc2Cl)ccc(C(C)=O)c1O [Compound (I)-B-2, 4-[3-(4-acetyl-3-hydroxy-2-n-propylphenoxy)propoxy]-3-chlorobenzoic acid]
% Inhibition, Experiment 1 ([2]; 0.313 mg/kg i.v., *P<0.05): 52% | % Inhibition, Experiment 1 [2, 4]: 77% | % Inhibition, Experiment 2 ([2]; 1.25 mg/kg i.v.): 10% | % Inhibition, Experiment 1 [2, 5]: 79% | % Inhibition, Experiment 2 [2, 6]: 42% | % Inhibition, Experiment 2 [2, 7]: 66% | minimal effective dose [2, 8]: 5 mg/kg | minimal effective dose [2, 9]: 0.313 mg/kg | inhibitory effect upon the bronchoconstriction compared with Control compound-1 (in words) [2]: superior to Control compound-1 | Autopsy findings (Acute toxicity in mice): did not reveal any abnormalities | symptoms attributable to compound after oral administration (Acute toxicity in mice): no symptoms | % Inhibition ([3]; 1.25 mg/kg i.v.): 20% | % Inhibition [3, 10]: 52% | % Inhibition ([3]; 20 mg/kg i.v., ***p<0.001): 88% | minimal effective dose [3]: 5 mg/kg | inhibitory effect on the antigen-induced bronchoconstriction compared with Control compound-1 (in words) [3]: superior to Control compound-1

CCCc1c(OCCCOc2cccc(-c3nn[nH]n3)c2)ccc(C(C)=O)c1O [Control compound-2, reference compound]
IC50 [1]: 680 nM

CCCc1c(OCCCOc2ccc(C(=O)O)c(O)c2)ccc(C(C)=O)c1O [Control compound-1, reference compound]
% Inhibition, Experiment 1 [2, 4]: 14% | % Inhibition, Experiment 1 [2, 5]: 56% | % Inhibition, Experiment 2 [2, 6]: 14% | % Inhibition, Experiment 1 ([2]; 20 mg/kg i.v., ***P<0.001): 87% | % Inhibition, Experiment 2 [2, 7]: 35% | minimal effective dose [2, 8]: 20 mg/kg | minimal effective dose [2, 9]: 5 mg/kg | IC50 [1]: 420 nM | % Inhibition ([3]; 1.25 mg/kg i.v.): 12% | % Inhibition [3, 10]: 16% | % Inhibition ([3]; 20 mg/kg i.v., ***p<0.001): 64% | minimal effective dose [3]: 20 mg/kg

CCCc1c(OCC(O)COc2ccc(-c3nn[nH]n3)cc2Br)ccc(C(C)=O)c1O (stereo not shown) [Compound (I)-A-2, 2-hydroxy-3-propyl-4-[2-hydroxy-3-[2-bromo-4-(tetrazol-5-yl)phenoxy]propoxy]acetophenone]
IC50 [1]: 19 nM

CCCc1c(OCC(O)COc2ccc(C(=O)O)cc2Cl)ccc(C(C)=O)c1O (stereo not shown) [Compound (I)-B-1, 4-[3-(4-acetyl-3-hydroxy-2-n-propylphenoxy)-2-hydroxypropoxy]-3-chlorobenzoic acid]
% Inhibition, Experiment 1 ([2]; 0.313 mg/kg i.v., *P<0.05): 41% | % Inhibition, Experiment 1 [2, 4]: 51% | % Inhibition, Experiment 1 [2, 5]: 84% | % Inhibition, Experiment 2 [2, 6]: 42% | % Inhibition, Experiment 2 [2, 7]: 96% | minimal effective dose [2, 8]: 5 mg/kg | minimal effective dose [2, 9]: 0.313 mg/kg | inhibitory effect upon the bronchoconstriction compared with Control compound-1 (in words) [2]: superior to Control compound-1 | Autopsy findings (Acute toxicity in mice): did not reveal any abnormalities | symptoms attributable to compound after oral administration (Acute toxicity in mice): no symptoms | % Inhibition ([3]; 1.25 mg/kg i.v.): 6% | % Inhibition [3, 10]: 51% | % Inhibition ([3]; 20 mg/kg i.v., ***p<0.001): 75% | minimal effective dose [3]: 5 mg/kg | inhibitory effect on the antigen-induced bronchoconstriction compared with Control compound-1 (in words) [3]: superior to Control compound-1
